Results from ChEMBL document CHEMBL4507281, “Data for DCP probe BI-4394” (2021).

Columns and labels:
[1] = test system: Tyrosine-protein kinase ABL1 (Homo sapiens), P00519 [E255K]; settings: Compound concentration 100.0 nM
[2] = molecular target: T1, Activin receptor type-1B (Homo sapiens) (UniProt P36896); settings: Compound concentration 100.0 nM
T1 sequence (whole entry): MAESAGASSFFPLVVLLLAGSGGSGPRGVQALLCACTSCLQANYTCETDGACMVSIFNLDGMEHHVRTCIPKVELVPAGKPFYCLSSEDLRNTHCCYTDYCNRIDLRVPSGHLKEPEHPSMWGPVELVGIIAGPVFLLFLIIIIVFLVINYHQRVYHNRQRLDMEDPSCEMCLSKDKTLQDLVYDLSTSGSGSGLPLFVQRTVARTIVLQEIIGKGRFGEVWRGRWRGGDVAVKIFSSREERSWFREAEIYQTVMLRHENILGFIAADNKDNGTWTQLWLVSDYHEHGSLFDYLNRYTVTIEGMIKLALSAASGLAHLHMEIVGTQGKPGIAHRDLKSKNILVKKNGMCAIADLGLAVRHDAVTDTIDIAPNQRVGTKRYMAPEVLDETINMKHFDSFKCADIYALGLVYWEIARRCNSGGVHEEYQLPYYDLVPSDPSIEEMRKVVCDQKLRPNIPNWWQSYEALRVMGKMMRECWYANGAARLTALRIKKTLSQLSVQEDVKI

[3] = molecular target: Aurora kinase B (Homo sapiens) (UniProt Q96GD4); settings: Compound concentration 100.0 nM
[4] = molecular target: Cytoplasmic tyrosine-protein kinase BMX (Homo sapiens) (UniProt P51813); settings: Compound concentration 100.0 nM
[5] = molecular target: Calcium/calmodulin-dependent protein kinase kinase 2 (Homo sapiens) (UniProt Q96RR4); settings: Compound concentration 100.0 nM
[6] = molecular target: Serine/threonine-protein kinase Chk2 (Homo sapiens) (UniProt O96017); settings: Compound concentration 100.0 nM
[7] = molecular target: Dual specificity protein kinase CLK1 (Homo sapiens) (UniProt P49759); settings: Compound concentration 100.0 nM
[8] = molecular target: Casein kinase I isoform alpha-like (Homo sapiens) (UniProt Q8N752); settings: Compound concentration 100.0 nM
[9] = molecular target: Casein kinase I isoform gamma-1 (Homo sapiens) (UniProt Q9HCP0); settings: Compound concentration 100.0 nM
[10] = molecular target: Serine/threonine-protein kinase 17B (Homo sapiens) (UniProt O94768); settings: Compound concentration 100.0 nM
[11] = molecular target: Dual specificity tyrosine-phosphorylation-regulated kinase 2 (Homo sapiens) (UniProt Q92630); settings: Compound concentration 100.0 nM
[12] = test system: Epidermal growth factor receptor (Homo sapiens), P00533 [UNDEFINED MUTATION]; settings: Compound concentration 100.0 nM
[13] = molecular target: Mitogen-activated protein kinase 4 (Homo sapiens) (UniProt P31152); settings: Compound concentration 100.0 nM
[14] = molecular target: Receptor-type tyrosine-protein kinase FLT3 (Homo sapiens) (UniProt P36888); settings: Compound concentration 100.0 nM
[15] = molecular target: Tyrosine-protein kinase Fyn (Homo sapiens) (UniProt P06241); settings: Compound concentration 100.0 nM
[16] = molecular target: Glycogen synthase kinase-3 alpha (Homo sapiens) (UniProt P49840); settings: Compound concentration 100.0 nM
[17] = molecular target: Insulin receptor (Homo sapiens) (UniProt P06213); settings: Compound concentration 100.0 nM
[18] = molecular target: Tyrosine-protein kinase JAK2 (Homo sapiens) (UniProt O60674); settings: Compound concentration 100.0 nM
[19] = test system: Mast/stem cell growth factor receptor Kit (Homo sapiens), P10721 [D816V]; settings: Compound concentration 100.0 nM
[20] = molecular target: Dual specificity mitogen-activated protein kinase kinase 1 (Homo sapiens) (UniProt Q02750); settings: Compound concentration 100.0 nM
[21] = molecular target: Mitogen-activated protein kinase kinase kinase 10 (Homo sapiens) (UniProt Q02779); settings: Compound concentration 100.0 nM
[22] = molecular target: Myosin light chain kinase, smooth muscle (Homo sapiens) (UniProt Q15746); settings: Compound concentration 100.0 nM
[23] = molecular target: Myosin-IIIa (Homo sapiens) (UniProt Q8NEV4); settings: Compound concentration 100.0 nM
[24] = molecular target: Serine/threonine-protein kinase Nek7 (Homo sapiens) (UniProt Q8TDX7); settings: Compound concentration 100.0 nM
[25] = molecular target: Serine/threonine-protein kinase PAK 3 (Homo sapiens) (UniProt O75914); settings: Compound concentration 100.0 nM
[26] = molecular target: Phosphatidylinositol 4,5-bisphosphate 3-kinase catalytic subunit alpha isoform (Homo sapiens) (UniProt P42336); settings: Compound concentration 100.0 nM
[27] = test system: Phosphatidylinositol 4,5-bisphosphate 3-kinase catalytic subunit alpha isoform (Homo sapiens), P42336 [C420R]; settings: Compound concentration 100.0 nM
[28] = test system: Phosphatidylinositol 4,5-bisphosphate 3-kinase catalytic subunit alpha isoform (Homo sapiens), P42336 [I800L]; settings: Compound concentration 100.0 nM
[29] = molecular target: 1-phosphatidylinositol 3-phosphate 5-kinase (Homo sapiens) (UniProt Q9Y2I7); settings: Compound concentration 100.0 nM
[30] = molecular target: Serine/threonine-protein kinase PknB (Mycobacterium tuberculosis) (UniProt P9WI81); settings: Compound concentration 100.0 nM
[31] = molecular target: Serine/threonine-protein kinase SIK3 (Homo sapiens) (UniProt Q9Y2K2); settings: Compound concentration 100.0 nM
[32] = molecular target: STE20-like serine/threonine-protein kinase (Homo sapiens) (UniProt Q9H2G2); settings: Compound concentration 100.0 nM
[33] = molecular target: Dual specificity protein kinase TTK (Homo sapiens) (UniProt P33981); settings: Compound concentration 100.0 nM
[34] = molecular target: Mu-type opioid receptor (Homo sapiens) (UniProt P35372); settings: Compound concentration 10.0 uM
[35] = molecular target: Sodium-dependent dopamine transporter (Homo sapiens) (UniProt Q01959); settings: Compound concentration 10.0 uM
[36] = molecular target: Alpha-1A adrenergic receptor (Homo sapiens) (UniProt P35348); settings: Compound concentration 10.0 uM
[37] = molecular target: Alpha-2A adrenergic receptor (Homo sapiens) (UniProt P08913); settings: Compound concentration 10.0 uM
[38] = molecular target: Mitogen-activated protein kinase 8 (Homo sapiens) (UniProt P45983); settings: Compound concentration 10.0 uM

Chain of STE20-like serine/threonine-protein kinase (Homo sapiens) (Q9H2G2 whole entry, looked up): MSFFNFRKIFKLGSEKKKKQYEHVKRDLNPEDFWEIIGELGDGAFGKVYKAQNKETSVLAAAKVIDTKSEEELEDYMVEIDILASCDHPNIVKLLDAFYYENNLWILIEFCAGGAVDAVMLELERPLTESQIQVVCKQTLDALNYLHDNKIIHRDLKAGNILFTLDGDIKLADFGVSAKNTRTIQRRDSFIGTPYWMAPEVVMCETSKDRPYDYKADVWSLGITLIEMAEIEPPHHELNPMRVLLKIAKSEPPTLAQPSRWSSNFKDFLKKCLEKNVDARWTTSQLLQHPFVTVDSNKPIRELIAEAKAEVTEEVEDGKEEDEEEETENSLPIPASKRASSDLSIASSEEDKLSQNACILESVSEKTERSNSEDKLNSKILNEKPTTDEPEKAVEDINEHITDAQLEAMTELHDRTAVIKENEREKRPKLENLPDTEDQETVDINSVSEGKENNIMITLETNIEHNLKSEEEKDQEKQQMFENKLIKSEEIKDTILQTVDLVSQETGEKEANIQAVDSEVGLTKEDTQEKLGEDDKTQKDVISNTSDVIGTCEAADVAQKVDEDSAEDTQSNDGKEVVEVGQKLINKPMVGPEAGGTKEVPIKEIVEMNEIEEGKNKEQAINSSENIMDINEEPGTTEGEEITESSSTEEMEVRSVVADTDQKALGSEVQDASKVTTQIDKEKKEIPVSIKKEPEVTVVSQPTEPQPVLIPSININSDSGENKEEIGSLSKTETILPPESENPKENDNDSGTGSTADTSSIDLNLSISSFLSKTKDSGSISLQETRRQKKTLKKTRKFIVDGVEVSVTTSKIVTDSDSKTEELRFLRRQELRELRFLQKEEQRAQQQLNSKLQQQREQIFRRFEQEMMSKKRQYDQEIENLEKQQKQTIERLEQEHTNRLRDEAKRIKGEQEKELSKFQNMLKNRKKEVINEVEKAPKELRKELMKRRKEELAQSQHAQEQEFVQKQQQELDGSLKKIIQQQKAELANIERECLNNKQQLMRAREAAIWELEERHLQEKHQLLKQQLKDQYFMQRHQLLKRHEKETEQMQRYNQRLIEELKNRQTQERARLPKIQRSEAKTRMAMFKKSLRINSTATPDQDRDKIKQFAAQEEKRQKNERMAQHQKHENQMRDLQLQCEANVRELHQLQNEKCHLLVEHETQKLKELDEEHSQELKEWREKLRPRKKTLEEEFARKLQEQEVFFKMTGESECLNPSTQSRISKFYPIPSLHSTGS
Chain of Dual specificity tyrosine-phosphorylation-regulated kinase 2 (Homo sapiens) (Q92630 whole entry): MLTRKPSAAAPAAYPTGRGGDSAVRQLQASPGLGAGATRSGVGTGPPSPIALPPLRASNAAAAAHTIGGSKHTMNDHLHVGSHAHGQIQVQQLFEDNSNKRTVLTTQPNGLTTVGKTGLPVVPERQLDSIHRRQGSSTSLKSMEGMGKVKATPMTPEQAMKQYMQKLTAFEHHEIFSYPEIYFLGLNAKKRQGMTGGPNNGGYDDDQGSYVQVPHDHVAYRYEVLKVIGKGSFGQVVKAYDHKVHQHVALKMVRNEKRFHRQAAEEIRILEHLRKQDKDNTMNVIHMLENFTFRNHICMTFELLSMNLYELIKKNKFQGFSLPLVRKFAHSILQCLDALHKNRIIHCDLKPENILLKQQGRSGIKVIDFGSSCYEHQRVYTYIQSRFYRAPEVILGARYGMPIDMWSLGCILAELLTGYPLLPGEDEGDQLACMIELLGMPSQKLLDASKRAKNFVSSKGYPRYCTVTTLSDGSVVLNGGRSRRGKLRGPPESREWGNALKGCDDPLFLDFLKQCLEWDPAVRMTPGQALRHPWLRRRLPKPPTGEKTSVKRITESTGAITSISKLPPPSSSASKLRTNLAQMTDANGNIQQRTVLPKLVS
Chain of Phosphatidylinositol 4,5-bisphosphate 3-kinase catalytic subunit alpha isoform (Homo sapiens), P42336 [I800L] (P42336 whole entry I800L, canonical isoform): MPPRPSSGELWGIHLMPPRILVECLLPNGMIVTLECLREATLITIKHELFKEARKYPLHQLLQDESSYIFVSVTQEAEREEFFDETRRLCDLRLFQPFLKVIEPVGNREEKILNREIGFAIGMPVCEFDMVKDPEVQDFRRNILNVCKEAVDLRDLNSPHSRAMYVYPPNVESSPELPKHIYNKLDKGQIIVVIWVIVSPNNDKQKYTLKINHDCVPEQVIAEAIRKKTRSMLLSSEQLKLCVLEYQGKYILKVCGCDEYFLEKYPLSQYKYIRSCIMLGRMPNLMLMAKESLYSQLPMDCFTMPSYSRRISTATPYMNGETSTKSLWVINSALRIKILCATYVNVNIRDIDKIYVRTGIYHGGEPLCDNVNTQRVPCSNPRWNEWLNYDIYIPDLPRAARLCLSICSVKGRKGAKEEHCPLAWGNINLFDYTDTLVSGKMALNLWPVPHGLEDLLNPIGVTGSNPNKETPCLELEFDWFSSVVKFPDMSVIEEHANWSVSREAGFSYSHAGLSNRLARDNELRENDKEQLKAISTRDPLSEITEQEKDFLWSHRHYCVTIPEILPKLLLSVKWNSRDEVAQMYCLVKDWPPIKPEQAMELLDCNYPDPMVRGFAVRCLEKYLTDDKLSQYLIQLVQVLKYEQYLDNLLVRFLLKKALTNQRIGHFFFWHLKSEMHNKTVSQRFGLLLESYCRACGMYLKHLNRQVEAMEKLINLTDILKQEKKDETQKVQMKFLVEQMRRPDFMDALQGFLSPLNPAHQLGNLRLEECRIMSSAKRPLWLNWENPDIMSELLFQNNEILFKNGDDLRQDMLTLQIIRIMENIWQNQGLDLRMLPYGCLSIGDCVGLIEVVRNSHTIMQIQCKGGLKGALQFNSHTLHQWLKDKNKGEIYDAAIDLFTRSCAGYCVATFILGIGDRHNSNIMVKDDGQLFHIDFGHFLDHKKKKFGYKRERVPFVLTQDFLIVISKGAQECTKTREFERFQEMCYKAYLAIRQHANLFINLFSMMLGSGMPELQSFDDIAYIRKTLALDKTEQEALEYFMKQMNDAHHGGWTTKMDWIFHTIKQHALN
Chain of Tyrosine-protein kinase Fyn (Homo sapiens) (P06241 2-537 limits assumed): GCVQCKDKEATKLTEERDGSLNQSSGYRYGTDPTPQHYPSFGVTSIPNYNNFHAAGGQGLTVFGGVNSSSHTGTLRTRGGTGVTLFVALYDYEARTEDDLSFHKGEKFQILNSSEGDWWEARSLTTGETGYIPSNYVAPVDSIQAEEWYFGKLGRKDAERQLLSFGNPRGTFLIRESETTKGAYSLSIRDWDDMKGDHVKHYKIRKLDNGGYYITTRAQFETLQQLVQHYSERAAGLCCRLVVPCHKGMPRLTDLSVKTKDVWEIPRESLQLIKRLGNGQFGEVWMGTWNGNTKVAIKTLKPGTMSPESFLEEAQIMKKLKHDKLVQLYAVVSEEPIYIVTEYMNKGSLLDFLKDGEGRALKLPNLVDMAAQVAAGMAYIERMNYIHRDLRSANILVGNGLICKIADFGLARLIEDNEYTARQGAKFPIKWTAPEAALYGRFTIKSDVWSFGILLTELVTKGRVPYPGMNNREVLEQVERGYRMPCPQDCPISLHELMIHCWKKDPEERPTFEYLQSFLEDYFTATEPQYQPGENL
Chain of Dual specificity mitogen-activated protein kinase kinase 1 (Homo sapiens) (Q02750 whole entry): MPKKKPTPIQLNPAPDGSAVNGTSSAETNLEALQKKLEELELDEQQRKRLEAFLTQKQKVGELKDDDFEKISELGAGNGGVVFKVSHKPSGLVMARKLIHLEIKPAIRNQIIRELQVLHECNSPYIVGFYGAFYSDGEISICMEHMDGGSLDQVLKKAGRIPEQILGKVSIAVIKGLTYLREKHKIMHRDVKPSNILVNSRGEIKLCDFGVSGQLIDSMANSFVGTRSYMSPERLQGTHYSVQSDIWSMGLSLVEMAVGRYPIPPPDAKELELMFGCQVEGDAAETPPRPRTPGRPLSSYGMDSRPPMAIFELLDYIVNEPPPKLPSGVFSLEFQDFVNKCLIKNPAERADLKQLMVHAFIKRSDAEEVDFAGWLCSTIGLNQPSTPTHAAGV
Chain of Aurora kinase B (Homo sapiens) (Q96GD4 whole entry): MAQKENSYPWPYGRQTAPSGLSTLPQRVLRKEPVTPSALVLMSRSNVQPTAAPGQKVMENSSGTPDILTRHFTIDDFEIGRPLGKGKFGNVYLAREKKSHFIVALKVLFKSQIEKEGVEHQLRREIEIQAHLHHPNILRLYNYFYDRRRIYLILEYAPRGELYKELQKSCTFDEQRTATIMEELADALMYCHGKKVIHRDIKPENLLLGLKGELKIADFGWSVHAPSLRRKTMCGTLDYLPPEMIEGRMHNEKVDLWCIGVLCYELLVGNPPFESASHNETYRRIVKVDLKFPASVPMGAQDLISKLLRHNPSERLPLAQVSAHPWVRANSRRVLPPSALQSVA
Chain of Glycogen synthase kinase-3 alpha (Homo sapiens) (P49840 2-483 limits assumed): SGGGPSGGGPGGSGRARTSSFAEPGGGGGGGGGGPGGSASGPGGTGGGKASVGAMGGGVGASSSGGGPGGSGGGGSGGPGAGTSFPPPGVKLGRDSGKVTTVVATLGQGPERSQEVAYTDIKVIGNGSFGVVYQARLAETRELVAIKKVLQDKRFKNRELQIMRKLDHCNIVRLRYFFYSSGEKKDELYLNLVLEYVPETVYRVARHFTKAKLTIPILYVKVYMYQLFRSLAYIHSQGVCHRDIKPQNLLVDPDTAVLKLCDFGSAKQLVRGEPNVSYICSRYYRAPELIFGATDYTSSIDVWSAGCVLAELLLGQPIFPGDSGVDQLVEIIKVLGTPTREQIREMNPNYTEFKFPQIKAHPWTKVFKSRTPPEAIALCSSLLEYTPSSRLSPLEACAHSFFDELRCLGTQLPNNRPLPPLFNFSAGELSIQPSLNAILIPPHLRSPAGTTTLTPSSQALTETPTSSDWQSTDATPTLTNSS
Chain of Phosphatidylinositol 4,5-bisphosphate 3-kinase catalytic subunit alpha isoform (Homo sapiens), P42336 [C420R] (P42336 whole entry C420R, canonical isoform): as the sequence (P42336 whole entry I800L, canonical isoform) above, with C420R, L800I counted along it
Chain of Phosphatidylinositol 4,5-bisphosphate 3-kinase catalytic subunit alpha isoform (Homo sapiens) (P42336 whole entry, canonical isoform): as the sequence (P42336 whole entry I800L, canonical isoform) above, with L800I counted along it

Structure (SMILES)	residual activity [1] [%]	residual activity [2] [%]	residual activity [3] [%]	residual activity [4] [%]	residual activity [5] [%]	residual activity [6] [%]	residual activity [7] [%]	residual activity [8] [%]	residual activity [9] [%]	residual activity [10] [%]	residual activity [11] [%]	residual activity [12] [%]	residual activity [13] [%]	residual activity [14] [%]	residual activity [15] [%]	residual activity [16] [%]	residual activity [17] [%]	residual activity [18] [%]	residual activity [19] [%]	residual activity [20] [%]	further results
Cn1nc(C(=O)NCc2ccc(C(=O)O)cc2)cc1-c1ccc2[nH]ccc2c1 [BI 4395]	65	83	92	98	80	100	80	94	91	91	100	74	89	86	98	61	100	90	91	91	residual activity [21]: 100%; residual activity [22]: 62%; residual activity [23]: 95%; residual activity [24]: 98%; residual activity [25]: 82%; residual activity [26]: 41%; residual activity [27]: 84%; residual activity [28]: 100%; residual activity [29]: 100%; residual activity [30]: 76%; residual activity [31]: 94%; residual activity [32]: 65%; residual activity [33]: 88%; inhibition [34]: 2.9%
CCOC(=O)c1cc2cc(-c3cc(C(=O)NCc4ccc(C(=O)O)cc4)nn3C)ccc2[nH]1 [BI 4394]	88	86	100	82	95	100	100	100	100	100	76	100	86	90	100	100	81	95	100	90	residual activity [21]: 70%; residual activity [22]: 100%; residual activity [23]: 100%; residual activity [24]: 100%; residual activity [25]: 77%; residual activity [26]: 92%; residual activity [27]: 83%; residual activity [28]: 93%; residual activity [29]: 100%; residual activity [30]: 100%; residual activity [31]: 100%; residual activity [32]: 98%; residual activity [33]: 93%; inhibition [35]: 2.26%; inhibition [34]: 0.37%; inhibition [36]: -6.15%; inhibition [37]: 12.3%; residual activity [38]: 87%
